Results as given in publication PMC7582727, “Functional Impact of BeKm-1, a High-Affinity hERG Blocker, on Cardiomyocytes Derived from Human-Induced Pluripotent Stem Cells” (International Journal of Molecular Sciences, 2020).
Positions of bridges follow the written chain, without caps; N, C: chain ends. Residues, ends and D or L forms follow the SMILES beside them.

How the values were obtained:
hiPS-CMs = assay: Intracellular Ca^2+ transients in hiPS-CMs (Fluo-4, confocal); type: cell-based, human; details: 5 nM
Description: As Ca^2+ influx abnormalities are likely to be at the root of electrophysiological disorders observed in the presence of BeKm-1, we sought to investigate the effects of this compound on hiPS-CM calcium dynamics. In order to test this, intracellular Ca^2+ transients (CaT) were monitored by confocal microscopy using the Fluo4 Ca^2+-sensitive dye in presence of 5 nM BeKm-1. […] The average interval was raised from 3.3 ± 1.7 sec (n = 8, vehicle) to 4.9 ± 2.2 sec (n = 8, 5 nM BeKm-1) (Figure S4C). In addition, we observed a reduction of CaT amplitude from 1.8 ± 0.2 (n = 8, vehicle) to 0.8 ± 0.2 (n = 8, 5 nM BeKm-1) (Figure S4D). […] The altered shape of the CaT was due to a slower time to peak (1.1 ± 0.1 s with vehicle vs. 2.2 ± 0.4 s with 5 nM BeKm-1, n = 8) (Figure S4E), possibly indicating a slower release from internal stores associated to a reduced entry by VGCC (largely due to the impact of RMP depolarization).
(§1) hiPS-CMs: All experiments were performed on the human-induced pluripotent stem cell (hiPSC) clone C2a that has been previously characterized, including cardiac differentiation and electrophysiology data. Cells were expanded on stem cell-qualified matrigel-coated plates (0.05 mg/mL; BD Bioscience, Le Pont de Claix, France) and cultured in StemMACS iPS-BREW XF medium (Miltenyi Biotec, Paris, France). Cells were passaged every […] using Gentle Cell Dissociation Buffer (StemCell Technologies, Grenoble, France). Prior to differentiation, cells were cultured as a monolayer in StemMACS iPS-brew supplemented with 1 × Y-27632 Rho-associated, coiled-coil containing protein kinase (ROCK) inhibitor (StemCell Technologies, Grenoble, France). When hiPSCs reached proper confluence, they were differentiated into cardiomyocytes using previously described « Matrix sandwich » protocol. At day 20 ± 1 of differentiation, beating cardiomyocytes were manually dissected and isolated from non-beating cells. Briefly, cardiomyocytes were washed with phosphate-buffered saline (PBS) and treated with TrypLE Express (10x) (Thermo Fisher Scientific, Illkirch-Graffenstaden, France) for 5 min at 37 °C. The enzyme was inactivated by adding RPMI1640 medium containing 20% (vol/vol) KnockOut Serum Replacement (KSR) (Thermo Fisher Scientific, Illkirch-Graffenstaden, France). The supernatant was removed, and cells were suspended in RPMI1640 medium containing 20% (vol/vol) KSR and ROCK inhibitor. Then, the cells were plated on specific supports suitable for functional assessments.
Calcium transients of hiPS-CMs were evaluated using the Fluo-4 reported dye and a Nikon A1R confocal microscope. Dissociated hiPS-CMs were plated and maintained on µ-slide 8-well IBIDI plates for 12 ± 1 days prior to experiments. On the day of the experiments, cells were loaded for 20 min with 3 µM Fluo-4 AM Ca^2+ indicator (Thermo Fisher Scientific, Illkirch-Graffenstaden, France) in culture medium at 37 °C. Then, to allow complete de-esterification of the Ca^2+ probe, the medium was replaced and cells were re-incubated at 37 °C for another 20 min. All recordings were performed in Tyrode’s solution, cells being placed at 37 °C in an experimental chamber. Confocal microscopy was performed using a Nikon A1R confocal inverted microscope (Nikon Corp, Tokyo, Japan) with a Nikon X60 Plan-Apo numerical aperture 1.4 oil-immersion objective (MicroPICell core facility). Fluo-4 AM was excited using the 488 nm line from an argon laser and fluorescence emission was measured at >505 nm. Images were acquired between 15.5 and 56.4 frames/s in X-Y mode, with a resolution of 1024 × 1024 pixels ([…]).

hiPS-CMs monolayers = assay: Contraction (impedance) of hiPS-CM monolayers (CardioExcyte 96); type: cell-based, human
Description: The results described above on the excitability alterations of hiPS-CMs indicate that BeKm-1 should also impair excitation–contraction coupling (ECC) in these cells. In spontaneously beating cardiomyocytes, the toxin should impact the contractility in a coherent manner with spontaneous APs and CaT. We investigated the contractions using the CardioExcyte 96 system. […] Coherent with the proarrhythmic properties of 2 nM of BeKm-1, both the mean SD1, the standard deviation of instantaneous contraction-to-contraction interval variability, and SD2, the continuous long-term interval variability, increased by 2- and 1.7-fold, respectively (Figure S5I).
as §1
The beating properties and the electrical field potentials of hiPS-CMs were evaluated with a CardioExcyte96 system. After dissociation, hiPS-CMs were seeded on NSP-96 Sensor Plates (Nanion Technologies, Munich, Germany) at a density of 40,000 viable cells per well. Sensor plates were previously coated with 10 µg/mL fibronectin for 1 h at 37 °C. The cells were maintained at 37 °C, and the medium was replaced every 2 days for 1 week. On the day of beating assessment, the whole medium was replaced 4 h prior to experiments, and cells were incubated at 37 °C onto the CardioExcyte96 system. Meanwhile, cells were monitored to ensure the full stabilization of beating parameters until BeKm-1 was tested at various concentrations ([…]). Tfall and Trise were determined as the time between 10% and 90% of contraction or relaxation, respectively. Pulse width (PWx) was determined as the time corresponding to the width of the signal at 90% of relaxation. Electric field potentials (EFPs) were recorded using CardioExcyte96 system. For both contraction and EFPs, 10 sequences of 30 s of acquisition were analyzed before and after BeKm-1 addition. The CardioExcyte system is best to analyze the kinetic parameters of the contractile properties of hiPS-CMs but has intrinsic limitations to assess properly variations in contractile force.

[1] = 2 nM vs vehicle, n = 8 monolayers

CC[C@H](C)[C@H](NC(=O)[C@H](CC(=O)O)NC(=O)[C@@H](NC(=O)[C@@H]1CCCN1C(=O)[C@@H](N)CCCNC(=N)N)[C@@H](C)O)C(=O)N[C@@H](CCCCN)C(=O)N[C@H]1CSSC[C@@H]2NC(=O)[C@H](CCCNC(=N)N)NC(=O)CNC(=O)[C@H](CC(N)=O)NC(=O)[C@H]([C@@H](C)O)NC(=O)[C@H](CCCCN)NC(=O)CNC(=O)[C@H](Cc3ccccc3)NC(=O)[C@H](CCCNC(=N)N)NC(=O)[C@H](CO)NC(=O)[C@H](CCCCN)NC(=O)[C@@H]3CSSC[C@@H](C(=O)N[C@@H](Cc4ccccc4)C(=O)O)NC(=O)[C@H](CC(=O)O)NC(=O)[C@H](CSSC[C@H](NC(=O)[C@H](CCC(N)=O)NC(=O)[C@H](Cc4ccc(O)cc4)NC(=O)[C@H](CO)NC(=O)[C@H](CCC(=O)O)NC(=O)[C@H](CO)NC1=O)C(=O)N[C@@H](Cc1ccccc1)C(=O)N1CCC[C@H]1C(=O)N[C@@H](C(C)C)C(=O)N3)NC(=O)[C@H](Cc1ccccc1)NC(=O)CNC(=O)[C@H](CC(N)=O)NC(=O)[C@H](C(C)C)NC2=O [BeKm-1] (H-RPTDIKCSESYQCFPVCKSRFGKTNGRCVNGFCDCF-OH; disulfide 7-28, 13-33, 17-35 (inferred); N-terminus and C-terminus assumed)
average interval between CaT (hiPS-CMs; 37 °C, vehicle 3.3 ± 1.7 sec, n = 8, mean ± SEM): 4.9 ± 2.2 s
CaT amplitude (hiPS-CMs; F/F0 (Figure S4D), vehicle 1.8 ± 0.2, n = 8, mean ± SEM): 0.8 ± 0.2
cytoplasmic Ca^2+ handling (integration of Ca^2+ signals) (hiPS-CMs; Figure S4G): non-significant decrease
variability of CaT intervals (hiPS-CMs; Poincaré plot, Figure S4B): great variability
kinetics of the CaT decay phase (hiPS-CMs; tau of decay, Figure S4F): no alterations
CaT time to peak (hiPS-CMs; vehicle 1.1 ± 0.1 s, n = 8, mean ± SEM): 2.2 ± 0.4 s
contraction amplitude (hiPS-CMs monolayers; 2 nM): not significantly different from the control
pulse width PW95 (hiPS-CMs monolayers; 2 nM): significant alteration
pulse widths PW30, PW70 and PW90 (hiPS-CMs monolayers; 2 nM): none of the pulse widths (PW) PW30, PW70, and PW90 parameters were significantly altered
interbeat interval increase (hiPS-CMs monolayers; 2 nM vs vehicle): 16.7%
slowing of relaxation phase (hiPS-CMs monolayers; 2 nM vs vehicle): 19.8%
slowing of rising phase of contraction (hiPS-CMs monolayers; 2 nM vs vehicle): 1.29 -fold
SD1 increase (instantaneous contraction-to-contraction interval variability) (hiPS-CMs monolayers; [1]): 2 -fold
SD2 increase (continuous long-term interval variability) (hiPS-CMs monolayers; [1]): 1.7 -fold
interbeat interval (hiPS-CMs monolayers; 2 nM, 37 °C, vehicle 2.03 ± 0.1 s, n = 8, mean ± SEM): 2.37 ± 0.2 s
duration of rising phase of contraction (Trise) (hiPS-CMs monolayers; 2 nM, 37 °C, vehicle 203.5 ± 11.3 ms, n = 8, mean ± SEM): 262.6 ± 16.9 ms
duration of relaxation phase (Tfall) (hiPS-CMs monolayers; 2 nM, 37 °C, vehicle 719.2 ± 45.8 ms, n = 8, mean ± SEM): 862.1 ± 82.0 ms
interbeat interval and its variability (hiPS-CMs monolayers; 2 nM, Poincaré plot): significantly increased
